This is an account of results in PubChem BioAssay AID977620 (Broad Institute, 2014).

SMILES strings stand for the structures. The source made the active and inactive calls.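 Rule for the calls: active = signal-lowering curve whose fitted AC50 is at or under twice the top valid dose of that sample; inconclusive = flat fit with a moderate drop, or a poor fit; inactive = the rest.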

Test system in one test: not listed separately
The test is described as follows: viability loss in A549 lung cancer cells – cell-based, CellTiter-Glo luminescence, dry powder, set 14, cytotoxicity control, dose response (AID 977620). Particulars: A549 viability, CellTiter-Glo ATP luminescence, 72 h; at 30 µM (top of the series).
Consider `CN(C)S(=O)(=O)c1ccc(N2CCCC2)c(C(=O)N2CCOCC2)c1`, for which the activity change, negative = cytotoxicity is -6.88% (inactive). Regarding `COc1ccc(NC(=O)c2cc(S(=O)(=O)N(C)C)ccc2N2CCCC2)cc1`, the activity change, negative = cytotoxicity was -10.6% (inactive).

As to `COc1cccc2sc(NC(=O)c3cc(S(=O)(=O)N(C)C)ccc3N3CCCC3)nc12`, the activity change, negative = cytotoxicity was -3.6% (inactive). Same read-out and setting: under `CN(C)CCCN(Cc1cc2ccccc2[nH]c1=O)C(=O)Nc1ccccc1` stands -3.6% (inactive); under `CN(C)S(=O)(=O)c1ccc(N2CCCC2)c(C(=O)Nc2cccc(F)c2)c1`, -13.3% (inactive); under `CN(C)S(=O)(=O)c1ccc(N2CCCC2)c(C(=O)Nc2ccccc2Cl)c1`, -2.95% (inactive). For `CN(C)C(=O)c1cc(S(=O)(=O)N(C)C)ccc1N1CCCC1`, the activity change, negative = cytotoxicity was -2.1% (inactive). Same read-out and setting: as for `Cc1cnc(NC(=O)c2cc(S(=O)(=O)NCc3ccccc3)ccc2N2CCCC2)s1`, the figure is -16.4% (inactive); as for `CN(C)S(=O)(=O)c1ccc(N2CCCC2)c(C(=O)Nc2cccnc2)c1`, -10% (inactive); as for `Cc1cnc(NC(=O)c2cc(S(=O)(=O)N(C)C)ccc2N(C)C)s1`, -11.3% (inactive).

Turning to `Cc1cnc(NC(=O)c2cc(S(=O)(=O)N(C)c3ccccc3)ccc2N2CCCC2)s1`, the activity change, negative = cytotoxicity was 0.919% (inactive). `CN(C)CCCN(Cc1cc2ccccc2[nH]c1=O)C(=O)NCc1ccccc1`: the activity change, negative = cytotoxicity is -11.2% (inactive). On the same count and under the same terms, as for `Cc1ccccc1NC(=O)c1cc(S(=O)(=O)N(C)C)ccc1N1CCCC1`, the figure is -11.9% (inactive). The same measure, in the same setting: as for `COc1ccccc1NC(=O)c1cc(S(=O)(=O)N(C)C)ccc1N1CCCC1`, the figure is -6.88% (inactive); as for `Cc1cnc(NC(=O)c2cccc(S(=O)(=O)N(C)C)c2)s1`, 3.41% (inactive). On to `Cc1nc(NC(=O)c2cc(S(=O)(=O)N(C)C)ccc2N2CCCC2)n[nH]1`, for which the activity change, negative = cytotoxicity was -5.15% (inactive).

With `CN(C)S(=O)(=O)c1ccc(N2CCCC2)c(C(=O)NC2CCCCC2)c1`, the activity change, negative = cytotoxicity was -6.42% (inactive). On the same count and under the same terms, as for `COc1ccc2nc(NC(=O)c3cc(S(=O)(=O)N(C)C)ccc3N3CCCC3)sc2c1`, the figure is -22.2% (inactive); as for `CN(C)S(=O)(=O)c1ccc(N2CCCC2)c(C(=O)Nc2ccncc2)c1`, -5.75% (inactive). With `Cc1cnc(NC(=O)c2cc(S(=O)(=O)N(C)C)ccc2N2CCNCC2)s1`, the activity change, negative = cytotoxicity is -10.1% (inactive). As to `Cc1nnc(NC(=O)c2cc(S(=O)(=O)N(C)C)ccc2N2CCCC2)s1`, the activity change, negative = cytotoxicity is -7.41% (inactive).

The next test concerns A549 viability, CellTiter-Glo ATP luminescence, 72 h. The test is described as above.
Conditions: not given
For the compound `CN(C)S(=O)(=O)c1ccc(N2CCCC2)c(C(=O)Nc2ccccc2)c1`, the AC50 (commonly the midpoint of the concentration-response curve, whichever way the signal moves) was > 60 µM (inactive). Still for that read-out and setting: under `CCN(CC)c1ccc(S(=O)(=O)N(C)C)cc1C(=O)Nc1ncc(C)s1` stands > 60 µM (inactive); under `Cc1ccc(NC(=O)c2cc(S(=O)(=O)N(C)C)ccc2N2CCCC2)cc1`, > 60 µM (inactive).

With `Cc1cnc(NC(=O)c2cc(S(=O)(=O)N(C)C)ccc2C2CCCC2)s1`, the AC50 was > 60 µM (inactive).

For the compound `Cc1cnc(NC(=O)c2cc(S(=O)(=O)N3CCOCC3)ccc2N2CCCC2)s1`, the AC50 was 23.3 µM. On the same count and under the same terms, as for `COc1ccc2sc(NC(=O)c3cc(S(=O)(=O)N(C)C)ccc3N3CCCC3)nc2c1`, the figure is > 60 µM (inactive); as for `CN(C)S(=O)(=O)c1ccc(N2CCCC2)c(C(=O)Nc2nccs2)c1`, > 60 µM (inactive). Still for that read-out and setting: under `Cc1cnc(NC(=O)c2cc(S(=O)(=O)N(C)C)ccc2N2CCC2)s1` stands > 60 µM (inactive). For `CCN(CC)S(=O)(=O)c1ccc(N2CCCC2)c(C(=O)Nc2ncc(C)s2)c1`, the AC50 was > 60 µM (inactive). The same measure, in the same setting: under `Cc1cnc(NC(=O)c2cc(S(=O)(=O)N3CCCCC3)ccc2N2CCCC2)s1` stands > 60 µM (inactive); under `Cc1cnc(NC(=O)c2cc(S(=O)(=O)N3CCNCC3)ccc2N2CCCC2)s1`, > 60 µM (inactive); under `CN(C)S(=O)(=O)c1ccc(N2CCCC2)c(C(=O)Nc2ccc(Br)cc2)c1`, > 60 µM (inactive). In the case of `CN(C)S(=O)(=O)c1ccc(N2CCCC2)c(C(=O)Nc2nc3ccccc3s2)c1`, the half-maximal activity concentration (AC50) is 25.9 µM. As for `Cc1cnc(NC(=O)c2cc(S(=O)(=O)N(C)C)ccc2N2CCCCC2)s1`, the AC50 is > 60 µM (inactive).

On to `Cc1cnc(NC(=O)c2cc(S(=O)(=O)N(CC(C)C)CC(C)C)ccc2N2CCCC2)s1`, for which the AC50 was > 60 µM (inactive).
